Test results reported in patent publication US20060094710A1, “Piperidine-pyridazones and phthalazones as pde4 inhibitors” (Altana Pharma AG, priority 2002, published 2006).

Row | Structure (SMILES) | melting point
1 | COc1ccc(C2=NN(C3CCN(Cc4ccc(-n5cnc6ccccc65)cc4)CC3)C(=O)[C@@H]3CC=CC[C@H]23)cc1OC.Cl [Compound 3, (4aS,8aR)-2-[1-(4-Benzimidazol-1-yl-benzyl)-piperidin-4-yl]-4-(3,4-dimethoxy-phenyl)-4a,5,8,8a-tetrahydro-2H-phthalazin-1-one hydrochloride] | 147 to 149 °C
2 | COc1ccc(C2=NN(C3CCN(C(=O)CS(C)(=O)=O)CC3)C(=O)[C@@H]3CC=CC[C@H]23)cc1OC [Compound 1, (4aS,8aR)-4-(3,4-Dimethoxy-phenyl)-2-[1(2-methanesulfonyl-ethanoyl)-piperidin-4-yl]-4a,5,8,8a-tetrahydro-2H-phthalazin-1-one] | 169 to 170 °C
3 | COc1ccc(C2=NN(C3CCN(C(=O)CCS(=O)(=O)CCNC(=O)N4CCOCC4)CC3)C(=O)C3CC=CCC23)cc1OC (centres unmarked) [Compound 5] | 118 to 121 °C
4 | COCCN1CCC(N2N=C(c3ccc(OC)c(OC)c3)[C@H]3CC=CC[C@H]3C2=O)CC1.Cl [Compound 9, (4aS,8aR)-4-(3,4-Dimethoxy-phenyl)-2-[1-(2-methoxy-ethyl)-piperidin-4-yl]-4a,5,8,8a-tetrahydro-2H-phthalazin-1-one hydrochloride] | 87 to 90 °C
5 | COc1ccc(C2=NN(C3CCN(CC(=O)c4cc5ccccc5o4)CC3)C(=O)C3CC=CCC23)cc1OC (centres unmarked) [Compound 2] | 188 to 189 °C
6 | COc1ccc(C2=NN(C3CCN(CCS(C)(=O)=O)CC3)C(=O)[C@@H]3CC=CC[C@H]23)cc1OC.Cl [Compound 11, (4aS,8aR)-4-(3,4-Dimethoxy-phenyl)-2-[1-(2-methanesulfonyl-ethyl)-piperidin-4-yl]-4a,5,8,8a-tetrahydro-2H-phthalazin-1-one hydrochloride] | 87 to 90 °C
7 | COc1ccc(C2=NN(C3CCN(C(=O)CCCOc4ccc5[nH]c(=O)ccc5c4)CC3)C(=O)CC2)cc1OC [Compound 15, 6-(4-{4-[3-(3,4-Dimethoxy-phenyl)-6-oxo-5,6-dihydro-4H-pyridazin-1-yl]-piperidin-1-yl}-4-oxo-butoxy)-1H-quinolin-2-one] | 169 to 171 °C
8 | COc1ccc(C2=NN(C3CCN(CCOCCN)CC3)C(=O)[C@@H]3CC=CC[C@H]23)cc1OC.Cl.Cl | 86 to 89 °C
